# From US5281619A, “Therapy for diabetic complications” (Eli Lilly and Company, priority 1993, dated 1994)
# Legend:
# [1] = system: bovine retinal capillary endothelial cells; assay: Activation of bovine retinal capillary endothelial cells by phorbol esters (PA activity, cell number); type: cell-based; settings: for increase in endothelial cell activation (in words): phorbol esters known to activate PKC vs. 4-α analogues
# Description: Retinal capillary endothelial cell cultures were initiated from bovine eyes using a modification of the procedure of Buzney et al., Investigative Ophthalmology and Visual Sciences, 24: 470-480 (1983). Bovine eyes were transported on ice from a local abattoir. Extraocular muscle was trimmed from the eye, and the eye bisected posterior to the ora serrata. The vitreous and anterior portion of the eye were discarded, and the neuro-retina was gently dissected from the posterior eyecup. The retinas from 20 cattle were pooled and homogenized (5 strokes of a Teflon/glass homogenizer) in Hank's saline. The homogenate was passed through a 350μ filter to remove large debris and a 210μ filter to remove large vessels. The microvessels were trapped on a 85μ filter. The microvessels were resuspended in Hank's saline and digested with 7.5 mg/ml bacterial collagenase (Boeringher Mannheim, Indianapolis) Hank's saline for 1 hour at 37° C. The cells were pelleted by centrifugation (100 xg, 10 min), resuspended in 5 ml Endothelial Growth Media (EGM, Clonetics) and seeded in a gelatin-coated T-25 flask. After 24 hours the cells were trypsinized and replated in a gelatin coated T225. At 7 days and again at 14 days the cultures were labeled with acetylated lipoproteins labeled with the fluorescent probe (1,1'-dioctadecyl-3,3,3,3,-tetramethyl-indocarbocyanine perchlorate). The endothelial cells were separated from contaminating cell types using a fluorescent cell sorter as described in Voyta et al., J. Cell Biology, 99: 2034-2040 (1984).
# Retinal capillary endothelial cells were seeded into 96-well plates and grown to confluence (10^5 cells/well) in EGM containing 10% fetal bovine serum (FBS). The media was changed to Dubecco's Modified Eagle's Medium with 10% fetal bovine serum 24 hours prior to the assay. The cells were treated with 50 nM 4-β phorbol 12,13-dibutyrate (4-β PDBu) to activate PKC and produce the activated endothelial phenotype characteristic of the diabetic state. The activated cells were treated with a series of dilutions of the test compounds. The phorbol esters and the test compounds were dissolved in DMSO before adding to the culture media. The cultures were incubated at 37° C. for 48 hours. Following treatment, the cells were lysed with 25mM NH4 OH in 0.5% triton X-100.
# (§1) The activation of bovine retinal capillary endothelial cells was monitored through alterations in cellular plasminogen activator (PA) activity in the cell lysates. Plasminogen activator activity was determined in a 50 μl aliquot of cell lysate using the synthetic substrate H-D-valyl-L-leucyl-lysine-p-nitroaniline dihydrochloride (Kabi).
# Dose-response curves generated for 4-β PDBu and 4-β PMA indicated […] of 50 nM and 5 nM respectively. Elevated PA activity was observed only after prolonged (at least 8 hours) stimulation with phorbol esters. The PA activity continued to increase in a time and dose dependent manner for up to 72 hours, but constant stimulation with phorbol ester was required to maintain endothelial cell activation.
# [2] = system: bovine retinal capillary endothelial cells; assay: Inhibition of phorbol ester-induced endothelial cell activation, plasminogen activator (PA) activity in cell lysates; type: cell-based; settings: Bos taurus, 4-β PDBu (50 nM) activated cells, 48 hours
# Description: Retinal capillary endothelial cell cultures were initiated from bovine eyes using a modification of the procedure of Buzney et al., Investigative Ophthalmology and Visual Sciences, 24: 470-480 (1983). Bovine eyes were transported on ice from a local abattoir. Extraocular muscle was trimmed from the eye, and the eye bisected posterior to the ora serrata. The vitreous and anterior portion of the eye were discarded, and the neuro-retina was gently dissected from the posterior eyecup. The retinas from 20 cattle were pooled and homogenized (5 strokes of a Teflon/glass homogenizer) in Hank's saline. The homogenate was passed through a 350μ filter to remove large debris and a 210μ filter to remove large vessels. The microvessels were trapped on a 85μ filter. The microvessels were resuspended in Hank's saline and digested with 7.5 mg/ml bacterial collagenase (Boeringher Mannheim, Indianapolis) Hank's saline for 1 hour at 37° C. […]
# as §1
# [3] = system: Glucose-Induced Vascular Dysfunction in Normal Rats; assay: Glucose-induced vascular dysfunction in rat granulation tissue chamber model (permeability and blood flow); type: in vivo; settings: twice daily for 7 days, 30-35 mM glucose
# Protocol: Representative compounds were evaluated in situ for their ability to block the increase in blood flow and permeability induced by high glucose in a rat tissue granulation tissue chamber model. In this model circles of skin were removed from the backs of normal rats and stainless steel screw-cap chambers were mounted. New granulation tissue formed within the chambers. Addition of 30-35 mM glucose (0.5 ml) twice daily to the chambers for 7 days induced a vascular dysfunction similar to that of diabetes--that is there was an increase in blood vessel permeability and an increase in blood flow. Blood flow was measured through the use of radiolabeled microspheres, and permeability was quantified using a dual label technique with iodinated albumin (^125 I/^131 I). Details of the model can be found in Tilton, et al., Diabetes38: 1258-1270 (1989). and Williamson, et al., J. Clin. Invest. 85: 1167-1172 (1990).
# Representative compounds were dissolved in DMSO and diluted in a balanced salt solution to achieve a final concentration of 20 or 50 μM. The granulation chamber tissue was treated twice daily for 7 days to determine their effects on glucose-induced vascular dysfunction. Addition of 30-35 mM glucose to the granulation chamber induced a vascular dysfunction characterized by increased vessel permeability and increased blood flow.
# [4] = system: vasculature in streptozotocin-diabetic rats; assay: Microvascular dysfunction associated with streptozotocin-induced diabetes in rats (permeability and blood flow); type: in vivo, rat; settings: 0.1% in diet, 4 to 7-week period
# Protocol: Representative compounds were further evaluated for their ability to block the microvascular dysfunction associated with streptozotocin-induced diabetes. Rats were made diabetic with an injection of streptozotocin, and the rats were feed ad libitum with a diet containing 0.1% of a representative compound. Blood flow was measured through the use of radiolabeled microspheres while permeability was quantified using a dual label technique with iodinated albumin (^125 I/^131 I). Details of the model can be found in Tilton et al., Diabetes38: 1258-1270 (1989), and Williamson et al., J. Clin. Invest. 85: 1167-1172 (1990).
# Blood flow also was elevated on induction of diabetes in these tissues. In contrast, vascular function was not affected in the brain or muscle.
smiles,measurement,setting,value
CCCC(=O)OC1C(C)C2(O)C(C=C(CO)CC3(O)C(=O)C(C)=CC32)C2C(C)(C)C12OC(=O)CCC (stereo not drawn) [4-α PDBu],increase in endothelial cell activation (in words),[1],not
CCCCCCCCCCCCCC(=O)OC1C(C)C2(O)C(C=C(CO)CC3(O)C(=O)C(C)=CC32)C2C(C)(C)C12OC(C)=O (stereo not drawn) [4-α PMA],increase in endothelial cell activation (in words),[1],not
"CCCC(=O)OC1C(C)C2(O)C(C=C(CO)CC3(O)C(=O)C(C)=CC32)C2C(C)(C)C12OC(=O)CCC (stereo not drawn) [4-β PDBu, 4-β phorbol 12,13-dibutyrate]",increase in PA activity associated with the cell layer,"[1]; confluent cells, 48 hours",12 fold
same,increase in PA released into the media,"[1]; confluent cells, 48 hours",12 fold
same,increase in cell number,"[1]; confluent cells, 48 hours",two fold increase in cell number
same,increase in endothelial cell activation (in words),[1],increase in activation occurred
CCCCCCCCCCCCCC(=O)OC1C(C)C2(O)C(C=C(CO)CC3(O)C(=O)C(C)=CC32)C2C(C)(C)C12OC(C)=O (stereo not drawn) [4-β PMA],IC50,"[1]; Bos taurus, Endothelial cell, dose-response curves for phorbol esters",0.005 µM
same,increase in endothelial cell activation (in words),[1],increase in activation occurred
"N#CC1=C(N)Oc2c(ccc3ccccc23)C1c1ccccc1[N+](=O)[O-] (stereo not shown) [Example 5, 2-Amino-4-(2-nitrophenyl)-4H-naphtho[1,2-b]pyran-3-carbonitrile]",IC50,[2],0.5 µM
same,BSA Clearance,[3]; 20 μM,163 µg/g/min
same,Blood Flow,[3]; 20 μM,0.231 mL/g/min
"N#CC1=C(N)Oc2c(ccc3ccccc23)C1c1cccc([N+](=O)[O-])c1 (stereo not shown) [Example 6, 2 Amino-4-(3-nitrophenyl)-4H-naphtho[1,2-b]pyran-3-carbonitrile]",IC50,[2],0.025 µM
same,development of increased permeability and blood flow (in words),[4],prevented the development of increased permeability and blood flow
same,"Permeability, Aorta","[4]; aorta, diabetic rats",99.00 µg/g/min
same,"Blood Flow, Brain","[4]; brain, diabetic rats",0.88 mL/min/g
same,"Permeability, Brain","[4]; brain, diabetic rats",19.00 µg/g/min
same,"Permeability, Muscle","[4]; muscle, diabetic rats",63.00 µg/g/min
same,"Blood Flow, Nerve","[4]; nerve, diabetic rats",0.05 mL/min/g
same,"Permeability, Nerve","[4]; nerve, diabetic rats",63.00 µg/g/min
same,"Blood Flow, Retina","[4]; retina, diabetic rats",0.40 mL/min/g
same,"Permeability, Retina","[4]; retina, diabetic rats",59.00 µg/g/min
same,BSA Clearance,[3]; 20 μM,179 µg/g/min
same,Blood Flow,[3]; 20 μM,0.184 mL/g/min
same,BSA Clearance,[3]; 50 μM,158 µg/g/min
same,Blood Flow,[3]; 50 μM,0.168 mL/g/min
